ChEMBL document CHEMBL1152301, “Substitution of aminomethyl at the meta-position enhances the inactivation of O6-alkylguanine-DNA alkyltransferase by O6-benzylguanine” (J Med Chem, 2008)
Substitutions are numbered along the chain they refer to. Activity calls are given as the source filed them. No cut-off for these calls is given here.

Key:
[1] = molecular target: T1, Methylated-DNA--protein-cysteine methyltransferase (Homo sapiens) (UniProt P16455)
T1 sequence (whole entry): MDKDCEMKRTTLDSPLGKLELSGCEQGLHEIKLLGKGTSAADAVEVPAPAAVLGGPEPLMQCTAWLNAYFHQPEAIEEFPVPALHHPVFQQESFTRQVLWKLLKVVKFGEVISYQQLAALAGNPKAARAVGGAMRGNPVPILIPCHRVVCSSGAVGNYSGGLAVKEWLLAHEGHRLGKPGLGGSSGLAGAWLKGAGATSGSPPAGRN
Description: Inactivation of histidine6-tagged wild type human recombinant O-6-alkylguanine-DNA-alkyltransferase expressed in Escherichia coli assessed as [3H]methylated protein formation in presence of [3H]methylated calf thymus DNA

[2] = tested on: T2, Methylated-DNA--protein-cysteine methyltransferase (Homo sapiens), P16455 [S159A]
T2 sequence (whole entry): T1 sequence (whole entry) with S159A
Description: Inactivation of histidine6-tagged human recombinant O-6-alkylguanine-DNA-alkyltransferase S159A mutant expressed in Escherichia coli assessed as [3H]methylated protein formation in absence of [3H]methylated calf thymus DNA

[3] = molecular target: T1, Methylated-DNA--protein-cysteine methyltransferase (Homo sapiens); experiment: Inactivation of human O-6-alkylguanine-DNA-alkyltransferase in human HT-29 cells at 1 uM after 30 mins by reverse-phase HPLC in presence of [3H]methylated calf thymus DNA
[4] = molecular target: T1, Methylated-DNA--protein-cysteine methyltransferase (Homo sapiens); remark: listed apart in the source
Description: Inactivation of histidine6-tagged wild type human recombinant O-6-alkylguanine-DNA-alkyltransferase expressed in Escherichia coli assessed as [3H]methylated protein formation in absence of [3H]methylated calf thymus DNA

[5] = tested on: HT-29; experiment: Sensitization of human HT-29 cells to BCNU-induced cytotoxicity assessed as survival treated for 2 hrs before BCNU challenge measured after 16 to 18 hrs by colony forming assay; assay type: functional, cell-based
[6] = tested on: T2, Methylated-DNA--protein-cysteine methyltransferase (Homo sapiens), P16455 [S159A]; remark: listed apart in the source
Description: Inactivation of histidine6-tagged human recombinant O-6-alkylguanine-DNA-alkyltransferase S159A mutant expressed in Escherichia coli assessed as [3H]methylated protein formation in presence of [3H]methylated calf thymus DNA

[7] = Stability assessed as N6-[2-(hydroxymethyl)-benzyl]-2-aminoadenine formation in aqueous solution; assay type: physicochemical; details: buffer
[8] = molecular target: T1, Methylated-DNA--protein-cysteine methyltransferase (Homo sapiens); experiment: Inactivation of histidine6-tagged human recombinant O-6-alkylguanine-DNA-alkyltransferase expressed in Escherichia coli assessed as [3H]methylated protein formation at 1 mM

Structure (SMILES)	ED50 [1]	ED50 [2]	inhibition [3]	ED50 [4]	ED50 [6]	t1/2 [7]	inhibition [8]	Activity [5]
NCc1ccc(COc2nc(N)nc3nc[nH]c23)cc1	0.053 µM	0.16 µM	20%	0.23 µM	0.028 µM	–	–	Active
Cc1cccc(COc2nc(N)nc3nc[nH]c23)c1	0.16 µM	–	–	0.25 µM	–	–	–	–
Cc1ccc(COc2nc(N)nc3nc[nH]c23)cc1	–	–	–	0.32 µM	–	–	–	–
Cc1ccccc1COc1nc(N)nc2nc[nH]c12	90 µM	–	–	185 µM	–	–	–	–

Second part, led by results:

ED50 [1]	ED50 [2]	inhibition [3]	ED50 [4]	ED50 [6]	t1/2 [7]	inhibition [8]	Structure (SMILES)	Activity [5]
45 µM	–	–	80 µM	–	–	–	NCc1ccccc1COc1nc(N)nc2nc[nH]c12	–
> 1000 µM	–	–	> 1000 µM	–	50 h	< 10%	Nc1nc(NCc2ccccc2CO)c2[nH]cnc2n1	–
